In US8889126B2, “Methods and compositions for treating neuropathies” (Washington University, priority 2004, dated 2014):
“Also recorded” adds a separate entry of the source. Like-named read-outs stand apart in the source and are kept apart here.

Columns and labels:
Nrk2 = test: NAD synthesis enzyme mRNA levels (qRT-PCR) in cultured DRG neurons treated with rotenone; type: cell-based, rat; conditions: 0.1 μM and 1 μM rotenone, RNA collected at 24 hours
Protocol: Real-time quantitative reverse transcription-PCR analysis. All the surgical procedures were performed according to National Institute of Health guidelines for care and use of laboratory animals at Washington University. For the expression analysis following nerve injury, the sciatic nerves of a C57BL/6 mouse was transected and L4 to L5. DRGs were collected at indicated time points and pooled to extract RNA. […] Total RNAs from pooled tissue sources or DRG explant cultures were prepared. First-strand cDNA templates were prepared from 1 μg of each RNA using standard methods. Two independent cDNA syntheses were performed for each RNA sample. Quantitative reverse transcription (RT)-PCR was performed by monitoring in real-time the increase in fluorescence of the SYBR-GREEN dye on a TaqMan 7700 Sequence Detection System (Applied Biosystems).
To investigate the expression of mammalian NAD biosynthetic enzymes in the nervous system, we performed quantitative RT-PCR using RNA from mouse brain, retina, spinal code, and DRG at age of E14, P0, P7, P14 and P21. […] We also analyzed expression of NAD synthetic enzymes during the axonal degeneration caused by neurotoxin in cultured rat DRG neuron. […] FIG. 6B illustrates neurite degeneration introduced by incubation DRG in 1 or 0.1 μM rotenone for indicated time and NAD synthesis enzyme mRNA levels were determined by qRT-PCR as described in the text.

DRG explant neurons = test: in vitro Wallerian degeneration assay: DRG explant cultures, axonal transection by removal of neuronal cell bodies; type: cell-based, mouse; conditions: for increase in intact neurites at 48 hours after transection: 1 mM exogenous application; for neurite protection from degeneration: 1 mM in culture media for 24 hours before neurite transection; for effect on NAD-dependent axonal protection (NDAP): neurons cultured in 1 mM NAD, Sirtinol 100 μM, 3AB 20 mM or lentiviral siRNA, assessed 12 to 72 hr after transection
Protocol: To identify the mechanism of delayed axonal degeneration mediated by the Wld^s protein, we employed an in-vitro Wallerian degeneration model. Primary DRG explant neurons were infected with lentivirus expressing the appropriate proteins, and axons were injured by either removal of the neuronal cell body (transection) or growth in vincristine (toxic).
Mouse DRG explants from E12.5 embryos were cultured in the presence of 1 nM nerve growth factor. Non-neuronal cells were removed from the cultures by adding 5-fluorouracil to the culture medium. Transection of neurites was performed at 10-20 DIV using an 18-gauge needle to remove the neuronal cell bodies. Incubation with β-nicotinamide adenine dinucleotide (Sigma) or Sirtinol (Calbiochem) was performed using conditions indicated in the text or figures.
Lentiviral expression vectors were generated using HEK293T cells as described above. For confirmation of lentivirus-derived protein expression, HEK293T cells were infected with lentivirus and cells were lysed 3 days after infection. These lysates were analyzed by immunoblot to using anti-His tag monoclonal antibody (Qiagen) to detect expression of the respective hexahistidine-tagged proteins. Lentiviral infection of DRG neurons was performed by incubating ˜10^6-10^7 pfu/ml virus with the DRG explant for 24 h beginning 3-7 days prior to axonal transection. The infected neurons were examined under an inverted fluorescent microscope to insure detectable lentivirus-mediated transgene expression in >95% of neurons.
Quantitative analysis of axonal degeneration was performed as previously described (Zhai, et al., Neuron 39:217-25, 2003). Briefly, the cultures were examined using phase contrast microscopy at the indicated times. Axons with a fragmented, non-refractile appearance were designated as “degenerated.” At each time point, at least 200 singly distinguishable axons were blindly scored from several randomly taken images of each culture. Each condition was tested in triplicate explants in each experiment. Results were obtained from 2-4 independent experiments for each condition. Statistical analysis was performed by Student's T test. For calculations of neurite-covered area, digitally captured images from quadruplicate samples of two independent experiments were analyzed using analysis 3.1 software (Soft Imaging System, Lakewood, Colo.).
Cell culture, in vitro axotomy, and quantification of axonal degeneration. Mouse DRG explants from E12.5 embryos were cultured in the DMEM containing 10% FCS and 1 nM nerve growth factor. Non-neuronal cells were removed from the cultures by adding 5-fluorouracil to the culture media. Transection of neurites was performed at 14-21 DIV using an 18-gauge needle to remove the neuronal cell bodies. Lentiviral expression vectors were generated. Lentiviral infection was performed 3-7 days prior to axonal transection for 24 hr. Quantitative analysis of neurite degeneration was performed.

[1] = tested on: optic nerve (retinal ganglion cell axons); test: optic nerve transection after intravitreal injection of NAD biosynthetic substrates, neurofilament immunoreactivity by Western blotting; type: in vivo, rat; conditions: 24 hours before transection, 4 days after transection
Protocol: Administration of NAD biosynthetic substrates and optic Nerve transection. Nam, NMN, NmR, or NAD was dissolved in PBS at the concentration of 100 mM or 1 M. Each of 5 μl solution was injected into left intravitreal component under the anesthesia at a rate of […]. The left optic nerve was transected at 24 hours after intravitreal injection and optic nerve was recovered at indicated time. Optic nerve tissue was homogenized in 100 μl of a buffer containing 100 mM tris-HCl (pH 6.8), 1 SDS, and 1 mM DTT. Fifty μg of protein for each sample was analyzed by the Western blotting using anti-neurofilament antibody 2H3 (Developmental Studies Hybridoma Center) and peroxidase-conjugated secondary antibody (Jackson ImmunoResearch). The degeneration rate was calculated from the ratio of the neurofilament immunoreactivity of transected vs. contralateral nerves.
Transection of optic nerve is an in vivo model which can be used to investigate mechanisms leading to Wallerian degeneration and following retinal ganglion cell (RGC) death observed in human diseases such as glaucoma. In the C57BL/Wlds mouse strain, optic nerve degeneration during Wallerian degeneration after axotomy is dramatically slowed. In addition, intravitreal injection is used for screening of compounds that protect RGC axon from degeneration in vivo and thus we can asses the axon protective effect of each NAD biosynthetic substrates in vivo by intraocular injection of compounds including NAD, NMN, NmR, and Nam. […] We initially injected 5 μl of 100 mM or 1 M NAD solution into left intravitreal compartment. After 24 hours incubation, left optic nerve was transected and control (right) and axotomized (left) optic nerve were collected at 3, 4, and 5 days after transection. Neurofilament immunoreactivity from the axotomized optic nerve was measured and normalized against the value obtained from the right side of the optic nerve.
FIG. 9 illustrates optic nerve transection after intravitreal injection of NAD biosynthetic substrates. In these experiments, NAD biosynthetic substrate NAD, NMN, NmR, or Nam was injected into the intravitreal compartment of a left rat eye and allowed to incorporate in retinal ganglion cells for 24 hours. The left optic nerve was then transected by eye enucleation. The right and left optic nerves were collected at 4 days after transection and analyzed by Western blotting. Optic nerves transected from mice without any treatment prior to axotomy served as negative controls. FIG. 9 presents quantitative analysis data, displaying percentage of remaining neurofilament immunoreactivity from transected optic nerve relative to non-transected controls. Data is presented as percent remaining immunoreactivity±S.D.

| Structure (SMILES) | protection against axonal degeneration (summary statement of the in vitro study) (DRG explant neurons) | increase in intact neurites at 48 hours after transection (DRG explant neurons) | neurite protection from degeneration (DRG explant neurons) | neurofilament immunoreactivity of axotomized optic nerve, of non-axotomized optic nerve ([1]; 5 μl of 100 mM intravitreal) | other results |
| --- | --- | --- | --- | --- | --- |
| C=C(C)[C@H]1Cc2c(ccc3c2O[C@@H]2COc4cc(OC)c(OC)cc4[C@@H]2C3=O)O1 [rotenone] |  |  |  |  | expression of Nrk2 (mRNA) (Nrk2): more than 6 folds |
| NC(=O)c1ccc[n+]([C@@H]2O[C@H](CO)[C@@H](O)[C@H]2O)c1 [NmR, nicotinamide riboside] | have axon saving activity | comparable increase in intact neurites | saved neurites as well as NAD; also recorded: enough to protect axon from degeneration | 72±19% | protection against axonal degeneration (summary statement of the in vitro study) (DRG explant neurons; listed as nicotinamide riboside): protected against axonal degeneration to a similar extent as did NAD |
| O=C(O)c1cccnc1 [Na, nicotinic acid] | did not |  | failed to save neurites |  |  |
| NC(=O)c1cccnc1 [Nam, nicotinamide] | does not |  | had no effect | did not show any difference from the control animals | protection against axonal degeneration (summary statement of the in vitro study) (DRG explant neurons; listed as nicotinamide): did not |
| Oc1ccc(C=Cc2cc(O)cc(O)c2)cc1 [resveratrol, reference compound] |  |  |  |  | axonal degradation after axotomy (DRG explant neurons; 10~100 μM, treated prior to axotomy): decrease in axonal degradation that was comparable to that obtained using NAD |
| O=C(O)c1ccc[n+]([C@@H]2O[C@H](COP(=O)(O)O)[C@@H](O)[C@H]2O)c1 [NaMN, nicotinate mononucleotide] | protected against axonal degeneration to a similar extent as did NAD | comparable increase in intact neurites | saved neurites as well as NAD |  |  |
| NC(=O)c1ccc[n+]([C@@H]2O[C@H](COP(=O)([O-])O)[C@@H](O)[C@H]2O)c1 [NMN, nicotinamide mononucleotide] | have axon saving activity | comparable increase in intact neurites | successfully saved neurites from degeneration; also recorded: enough to protect axon from degeneration | 60±25% | neurite protection relative to exogenously applied NAD (quantitative analysis) (DRG explant neurons; 1 mM for 24 hours before transection): neurite protection to an extent similar to that achieved by exogenously applied NAD; protection against axonal degeneration (summary statement of the in vitro study) (DRG explant neurons; listed as nicotinamide mononucleotide): protected against axonal degeneration to a similar extent as did NAD |
| NC(=O)c1cccc(N)c1 [3AB, 3-aminobenzamide, reference compound] |  |  |  |  | effect on NAD-dependent axonal protection (NDAP) (DRG explant neurons): had no effect on NDAP |
| NC(=O)c1ccc[n+]([C@@H]2O[C@H](COP(=O)([O-])OP(=O)(O)OC[C@H]3O[C@@H](n4cnc5c(N)ncnc54)[C@H](O)[C@@H]3O)[C@@H](O)[C@H]2O)c1 [NAD, β-nicotinamide adenine dinucleotide] |  |  |  | 78±22% | neurofilament immunoreactivity of axotomized optic nerve, of non-axotomized optic nerve ([1]; 5 μl of 1 M intravitreal): 77±27% |
| CC(NC(=O)c1ccccc1/N=C/c1c(O)ccc2ccccc12)c1ccccc1 (stereo not shown) [Sirtinol, reference compound] |  |  |  |  | effect on NAD-dependent axonal protection (NDAP) (DRG explant neurons): effectively blocked NDAP |
| Nc1ncnc2c1ncn2[C@@H]1O[C@H](COP(=O)(O)OP(=O)(O)OC[C@H]2O[C@@H]([n+]3cccc(C(=O)O)c3)[C@H](O)[C@@H]2O)[C@@H](O)[C@H]1O [NaAD, nicotinic acid adenine dinucleotide] |  | less increase in intact neurites at 48 hours compared with NAD | slight protection |  |  |
